We go through 13 compounds from paper PMC6499816, “Molecular determinants regulating selective binding of autophagy adapters and receptors to ATG8 proteins” (Nature Communications, 2019).

In one assay the target is T1, GABARAPL1 (Homo sapiens, UniProt Q9H0R8).
T1 construct: insertion of full-length human GABARAP, GABARAP-L1, LC3A, and LC3C, and EcoRI and NotI restrictions sites for cloning of LC3B and GABARAP-L2; GST (followed by 3C protease site) (N); made in house; host or cells: bacteria (E. coli BL21 (DE3) pLysS is stated for the GST-ATG8 proteins of the overlay assay)
The experiment in a line: BLI, LIR peptide binding to GABARAPL1. The protocol:
(§1) For recombinant protein expression in bacteria, a modified plasmid of pGEX-6P2 (GE Healthcare) (referred to as pAL) containing an N-terminal […] followed by a 3C protease cleavage site was used.
(§2) Expression was induced by the addition of 0.5 mM IPTG at OD600 = 0.6 and cells were incubated at 25 °C overnight or at 37 °C for 5 h. Harvested cells were lysed in 50 mM Tris-HCl, pH 8.0, 500 mM NaCl, 0.1% Triton X-100, 0.4 mM 4-(2-aminoethyl)-benzenesulfonylfluoride HCl (AEBSF), and 15 µg/ml benzamidine. Fusion protein was batch adsorbed onto Glutathione-Sepharose 4B beads (GE Healthcare). After five washes with wash buffer (50 mM Tris, pH 8.0, 250 mM NaCl, 0.4 mM AEBSF, and 15 µg/ml benzamidine), fusion proteins were eluted in 50 mM Tris, pH 8.0, 2 mM L-glutathione reduced, 0.4 mM AEBSF, and 15 µg/ml benzamidine.
(§3) The biosensor tip surface immobilized with a ligand is incubated with an analyte in solution, resulting in an increase in optical thickness at the biosensor tip and a wavelength shift, which is a direct measure of the change in thickness. […] Ligand-loaded SA biosensors were then incubated with different concentrations of ATG8. All binding experiments were performed in solid-black 96-well plates containing 200 μl of solution (25 mM Tris, pH 7.5, 150 mM NaCl, 0.5 mM TCEP, 0.1% Tween-20, 1 mg/ml bovine serum albumin (BSA)) in each well at 25 °C with an agitation speed of 1000 rpm. Each measurement was repeated two to five times.
(§4) Peptides were synthesized using FMOC (fluorenylmethoxycarbonyl) solid-phase peptide chemistry by the Francis Crick Peptide Chemistry Technology Platform and are listed in Supplementary Table 2.

For a further assay, the target named is T2, GABARAPL2 (Homo sapiens, UniProt P60520).
T2 construct: insertion of full-length human GABARAP, GABARAP-L1, LC3A, and LC3C, and EcoRI and NotI restrictions sites for cloning of LC3B and GABARAP-L2; GST (followed by 3C protease site) (N); made in house; host or cells: bacteria (E. coli BL21 (DE3) pLysS is stated for the GST-ATG8 proteins of the overlay assay)
The experiment in a line: BLI, LIR peptide binding to GABARAPL2. The note with it: read-out: Kd (best-fit value). The protocol: as §1, §2, §3, §4
(Biolayer interferometry detects binding as a change in optical thickness at a sensor tip.)

The target of the next assay is T3, LC3C (Homo sapiens, UniProt Q9BXW4).
T3 construct: insertion of full-length human GABARAP, GABARAP-L1, LC3A, and LC3C, and EcoRI and NotI restrictions sites for cloning of LC3B and GABARAP-L2; GST (followed by 3C protease site) (N); made in house; host or cells: bacteria (E. coli BL21 (DE3) pLysS is stated for the GST-ATG8 proteins of the overlay assay)
The experiment in a line: BLI, LIR peptide binding to LC3C. Conditions: read-out: Kd (best-fit value). The protocol:
as §1, §2, §3, §4

In a further assay the target is T4, GABARAP (Homo sapiens, UniProt O95166).
T4 construct: insertion of full-length human GABARAP, GABARAP-L1, LC3A, and LC3C, and EcoRI and NotI restrictions sites for cloning of LC3B and GABARAP-L2; GST (followed by 3C protease site) (N); made in house; host or cells: bacteria (E. coli BL21 (DE3) pLysS is stated for the GST-ATG8 proteins of the overlay assay)
Kind of assay: BLI, LIR peptide binding to GABARAP. Conditions: n=2 independent experiments, read-out: Kd (best-fit value). The protocol:
as §1, §2, §3, §4

In the next assay the target is T5, LC3B (Homo sapiens, UniProt Q9GZQ8).
T5 construct: insertion of full-length human GABARAP, GABARAP-L1, LC3A, and LC3C, and EcoRI and NotI restrictions sites for cloning of LC3B and GABARAP-L2; GST (followed by 3C protease site) (N); made in house; host or cells: bacteria (E. coli BL21 (DE3) pLysS is stated for the GST-ATG8 proteins of the overlay assay)
The experiment in a line: BLI, LIR peptide binding to LC3B. Conditions: read-out: Kd (best-fit value). How it is done: as §1, §2
The biosensor tip surface immobilized with a ligand is incubated with an analyte in solution, resulting in an increase in optical thickness at the biosensor tip and a wavelength shift, which is a direct measure of the change in thickness. […] Ligand-loaded SA biosensors were then incubated with different concentrations of ATG8. […]

In a further assay the target is T6, LC3A (Homo sapiens, UniProt Q9H492).
T6 construct: insertion of full-length human GABARAP, GABARAP-L1, LC3A, and LC3C, and EcoRI and NotI restrictions sites for cloning of LC3B and GABARAP-L2; GST (followed by 3C protease site) (N); made in house; host or cells: bacteria (E. coli BL21 (DE3) pLysS is stated for the GST-ATG8 proteins of the overlay assay)
Kind of assay: Bio-layer interferometry (BLI), LIR peptide binding to LC3A. The note with it: read-out: Kd (best-fit value). How it is done: as §1, §2, §3, §4

[1] abbreviates: fit of response vs GABARAPL1 concentration (μM), n=2 independent experiments, read-out: Kd (best-fit value).
[2] abbreviates: fit of response vs GABARAP concentration (μM).
Where [3] appears, read: Fig. 4c, fit of response vs GABARAPL1 concentration, n=2 independent experiments, read-out: Kd (best-fit value).
Setting [4] is: Fig. 4c, fit of response vs GABARAP concentration.

Like-named read-outs stand apart in the source and are kept apart here. Ends that are not written are not given here.

T4 sequence (O95166 whole entry): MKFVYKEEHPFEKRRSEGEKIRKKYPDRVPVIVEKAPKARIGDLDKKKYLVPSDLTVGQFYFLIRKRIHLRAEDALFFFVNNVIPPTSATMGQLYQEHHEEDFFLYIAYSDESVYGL
T2 sequence (P60520 whole entry): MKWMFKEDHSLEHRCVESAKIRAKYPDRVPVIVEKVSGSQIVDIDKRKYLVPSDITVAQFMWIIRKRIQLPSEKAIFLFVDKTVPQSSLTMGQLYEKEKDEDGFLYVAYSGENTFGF
T3 sequence (Q9BXW4 whole entry): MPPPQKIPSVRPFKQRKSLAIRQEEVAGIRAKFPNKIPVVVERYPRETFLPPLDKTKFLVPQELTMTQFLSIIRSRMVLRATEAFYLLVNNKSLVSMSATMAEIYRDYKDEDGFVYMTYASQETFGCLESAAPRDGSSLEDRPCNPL
T1 sequence (Q9H0R8 whole entry): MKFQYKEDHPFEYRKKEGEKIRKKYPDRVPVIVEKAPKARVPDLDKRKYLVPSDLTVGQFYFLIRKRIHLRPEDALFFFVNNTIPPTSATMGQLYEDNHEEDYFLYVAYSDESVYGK

The Kd is the equilibrium constant for the complex coming apart. With `CSCC[C@H](NC(=O)[C@@H](NC(=O)[C@H](Cc1ccccc1)NC(=O)[C@H](CC(=O)O)NC(=O)[C@H](CC(=O)O)NC(=O)[C@@H](NC(=O)[C@@H](N)CC(=O)O)[C@@H](C)O)C(C)C)C(=O)N[C@H](C(=O)N1CCC[C@H]1C(=O)N[C@@H](C)C(=O)N[C@@H](CCC(N)=O)C(=O)N[C@@H](Cc1ccccc1)C(=O)N1CCC[C@H]1C(=O)NCC(=O)N[C@@H](CC(=O)O)C(=O)N[C@@H](CC(C)C)C(=O)N[C@H](C(=O)O)C(C)C)C(C)C` [ULK1 (aa 353-369)], the results for the Kd at GABARAPL1 (setting [1]) and at GABARAPL2 were 0.102 µM and 583 nM, respectively.

For DDFVMVPAQFPGDLV [ULK1 (aa 355-369)], the Kd amounted to 7840 nM at LC3C, 0.243 µM on GABARAPL1 (setting [1]), 2210 nM at GABARAPL2 and 0.288 µM at GABARAP (setting [2]).

Consider DSSCDTDDFVMV [ULK1 (aa 349-360)], for which the Kd at LC3B was found to be 8470 nM; at LC3C, 2210 nM; on GABARAPL1 (setting [1]) it was 0.22 µM; at GABARAPL2, 1090 nM; on GABARAP (setting [2]), 0.218 µM; at LC3A it was 2920 nM.

For the compound DSSCDTDDFVMVPA [ULK1 (aa 349-362)], the Kd on LC3C is 2780 nM; at GABARAPL1 (setting [1]), 0.148 µM; on GABARAPL2 it was 712 nM; on GABARAP (setting [2]), 0.174 µM; at LC3A, 9230 nM.

Regarding DSSCDTDDFVMVPAQF [ULK1 (aa 349-364)], the Kd on LC3C was 2230 nM; on GABARAPL1 (setting [1]), 0.161 µM; at GABARAPL2 it was 534 nM; on LC3A, 8370 nM.

On to “SQKSDEEDFDIIEDLPLKLTI [PCM1 V1956D/ K1957I/ V1958I]”, for which the Kd at LC3C was 2350 nM; at GABARAPL1 (setting [3]), 0.907 µM; on GABARAP (setting [4]), 1.39 µM; at LC3A, 4610 nM.

As to SQKSDEEDFDKVEDLPLKLTI [PCM1 V1956D], the Kd was 5.19 µM at GABARAPL1 (setting [3]) and 7.72 µM at GABARAP (setting [4]).

Take SQKSDEEDFVIVEDLPLKLTI [PCM1 K1967I]: the Kd is 384 nM at LC3C, 0.131 µM on GABARAPL1 (setting [3]) and 3930 nM at LC3A.

For SQKSDEEDFVKIEDLPLKLTI [PCM1 V1959I], the Kd is 6940 nM on LC3C, 1.07 µM on GABARAPL1 (setting [3]), 7580 nM at GABARAPL2 and 1.46 µM on GABARAP (setting [4]).

On to SQKSDEEDFVKIEDLPLKLTI [Γ3], for which the Kd on GABARAPL1 (immobilised biotinylated LIR peptide, pH 7.5, 25 °C, mean ± s.d., n = 2–4, pictures print no unit, µM as, read-out: Kd, LIR peptide to GABARAPL1) worked out at 1.1 ± 0.1 µM.

SQKSDEEDFVKVEDLALKLTI [PCM1 P1962A]: the Kd came to 10800 nM on LC3C, 0.879 µM at GABARAPL1 (setting [3]), 10500 nM at GABARAPL2 and 0.994 µM on GABARAP (setting [4]).

Consider SQKSDEEDFVKVTDLPLKLTI [PCM1 E1959T], for which the Kd on GABARAPL1 (setting [3]) worked out at 2.89 µM.

Turning to YRPPDDAVFDIITDEELCQIQ [FYCO1 WT], the Kd on LC3B was determined as 1130 nM; at LC3C, 3040 nM; at GABARAPL1 (setting [3]) it was 0.9 µM; at GABARAP (setting [4]), 1.73 µM; at LC3A it was 778 nM.
